# Measured values: EP1437117A1, “Use of Sinapic acid and/or its derivatives” (Cognis France S.A., priority 2002, dated 2004)
# Assays:
# [1] = in Ethanol; cited from earlier work
# [2] = type: physicochemical
# Source text: Vorzugsweise wird jedoch die reine, nicht derivatisierte Sinapinsäure und deren Salze eingesetzt. […] Die entstehenden Abbauprodukte bilden gefärbte übelriechende Substanzen, die auch zu Hautreizungen führen können. Es ist daher ein weiterer Gegenstand der Erfindung Sinapinsäure und/oder ihre Derivate in verkapselter, komplexierter oder adsorbierter Form in den Zubereitungen einzusetzen. Dabei bietet sich insbesondere die Verkapselung in Liposomen oder einer hydrophoben Matrix, die Komplexierung in Cyclodextrinen und die Adsorption an hydrophobe Träger an. Bevorzugt wird Sinapinsäure und/oder ihre Derivate in Mikrokapseln eingearbeitet.
# [3] = system: zellulärer DNA; experiment: UV-induced thymine dimer formation in cellular DNA; type: cell-based; settings: induced by UV radiation; topical application
# Source text: Es konnte festgestellt werden, dass durch die topische Anwendung von Sinapinsäure und ihren Derivaten insbesondere die Bildung von Thymin-Dimeren in zellulärer DNA, die durch UV-Strahlung induziert wird, vermindert wird. Dadurch kann die Anzahl der Mutationen gesenkt und eine Stärkung des dermalen Immunsystems bewirkt werden. Ein weiterer Gegenstand der Erfindung ist daher die Verwendung von Sinapinsäure und/oder Sinapinsäurederivaten zur Herstellung von kosmetischen und/oder dermopharmazeutischen Zubereitungen zum Schutz vor Thymin-Dimerbildung nach Einfluß von UV-Strahlung in Hautzellen und zur Verbesserung des DNA-Reparaturmechanismus in Hautzellen.
# [4] = system: Adenosindinukleotide (ADN) der Mitochondrien; experiment: Protection of mitochondrial genome against oxidative stress; type: cell-based; settings: damage caused by oxidative stress
# Source text: Sie vermindern die Schädigung des mitochondrialen Genoms, die durch oxidativen Stress bewirkt wird und führen dadurch zu einer Verzögerung der Alterung von Mitochondrien und zu einer Verbesserung des Energiepotentials der Zellen. Somit können Sinapinsäure und ihre Derivate über die Verbesserung der mitochondrialen Funktion und Energiebilanz zum Schutz der Haut gegen Alterung und Faltenbildung, zur Steigerung effektiver Reparaturmechanismen durch Alterung und Sonneneinstrahlung geschädigter Haut und zur verbesserten Wundheilung der Haut entscheidend beitragen.
# [5] = system: Carrageenan-induzierten Rattenpfotenödem-Modell; settings: after injection into the paw; Chawla AS et al 1993; cited from earlier work
# [6] = system: Neuropeptiden wie beispielsweise Substanz P oder CGRP; experiment: Release of neuropeptides; type: cell-based
# Source text: Die Haut ist ein Gewebe, das mit einer Vielzahl von Nervenfasern durchzogen ist, deren Zellkörper in den dorsalen Ganglien (dorsal root ganglia - DRG) zusammenführen. Neurone des Typs Aδ und C erreichen mit ihren Zellen die Dermis und auch die Epidermis. Typ C Neurone sind für die Detektion von noziceptiven Stimuli verantwortlich. Keratinocyten und Nervenfasern können eine Vielzahl unterschiedlicher Cytokine produzieren, die unter dem Einfluß externer Stimuli ausgeschieden werden und die sensorischen Enden der Nervenfasern stimulieren. Diese setzen dann wiederum Peptide frei, die die metabolische Aktivität der Keratinocyten über Messenger-Moleküle beeinflussen. Auf diese Weise kommunizieren sensorische Nerven und Keratinocyten kontinuierlich miteinander. Eine Disregulation dieses physiologischen Gleichgewichts erklärt viele pathologische Erscheinungen von empfindlicher Haut oder beispielsweise Psoriasis. Es konnte nun festgestellt werden, dass Sinapinsäure und ihre Derivate insbesondere empfindliche Haut dadurch beruhigen, dass sie die Freisetzung von Neuropeptiden wie beispielsweise Substanz P oder CGRP herabsetzen.
# [7] = system: dermaler Fibroblasten; experiment: Collagen synthesis of dermal fibroblasts; type: cell-based
# Source text: Die menschliche Haut enthält vorwiegend zwei Typen von Collagen: Collagen Typ I und Collagen Typ III, synthetisiert durch dermale Fibroblasten. Beide Collagentypen stellen wesentliche Strukturkomponenten der extrazellulären Matrix des Bindegewebes dar und tragen in hohem Maße zur Struktur der gesamten Haut bei. Ein wichtiges Kennzeichen alternder Haut ist die Abnahme des Collagengehaltes in der Dermis und eine damit verbundene Abnahme der Elastizität, die zusätzlich durch eine Verschlechterung der Fibroblastenfunktion durch nicht enzymatische Glycosylierung (Glycation) und oxidativen Abbau bewirkt wird. Es wurde nun festgestellt, dass Sinapinsäure und ihre Derivate die Collagensynthese dermaler Fibroblasten stimulieren und auf diese Weise die chronologische und die UV-Strahlungsinduzierte Hautalterung verzögert werden kann. Die Verwendung von Sinapinsäure und/oder Sinapinsäurederivaten zur Herstellung kosmetischer und/oder dermopharmazeutischer Zubereitungen zur Stimulation der Collagensynthese in dermalen Fibroblasten ist daher ein weiterer Gegenstand der Erfindung.
smiles,measurement,setting,value
"COc1cc(/C=C/C(=O)O)cc(OC)c1O [Sinapinsäure, 4-Hydroxy-3,5-Dimethoxy-Zimtsäure]",UV-Absorptionsmaximum,[1],323 nm
same,chemische Stabilität,[2],leicht zersetzt
same,Bildung von Thymin-Dimeren in zellulärer DNA,[3],vermindert
same,Wirkung auf Adenosindinukleotide (ADN) der Mitochondrien,[4],schützende Wirkung
same,anti-inflammatorische Wirkung,[5],anti-inflammatorische Wirkung
same,Freisetzung von Neuropeptiden wie beispielsweise Substanz P oder CGRP,[6],herabsetzen
same,Collagensynthese dermaler Fibroblasten,[7],stimulieren
